We go through ten compounds from ChEMBL document CHEMBL1201862, “PubChem BioAssay data set” (2004).

Test systems include NCI-H226; LOX IMVI; OVCAR-4; A498; HCT-15; A549; Malme-3M; KM12; ACHN; 786-0; TK-10; SNB-75; PC-3; SK-MEL-5; HOP-62; OVCAR-3; MDA-N; SNB-19; UACC-257; BT-549.
What all share (assay): DTP human tumour cell line panel, 48 h

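Five concentrations, 48 hours, 96-well plates. GI50 = concentration required for 50% inhibition of growth.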 Calls of active or inactive are those of the source. No stated cut-off is given here; in the data, active = GI50 up to about 1.1 µM and inactive = higher.

As for `CCOC(=O)NC(=O)c1cn(CCCOC(=O)CCCCCCCCC(=O)OCCCn2cc(C(=O)NC(=O)OCC)c(=O)n(C)c2=O)c(=O)n(C)c1=O`, the GI50 (in general, the concentration that inhibits growth by half) is > 100 µM (inactive) in the assay on NCI-H226; > 100 µM (inactive) with LOX IMVI; > 100 µM (inactive) in the assay on OVCAR-4; > 100 µM (inactive) in the assay on A498; > 100 µM in the assay on HCT-15; > 100 µM (inactive) in the assay on A549. Besides, the GI50 in the assay on Malme-3M was > 100 µM (inactive); with KM12, > 100 µM (inactive); in the assay on ACHN, > 100 µM (inactive); with 786-0, > 76.6 µM (inactive); with TK-10, > 86.5 µM (inactive); with SNB-75, > 48.2 µM (inactive). For the same compound, the GI50 was > 100 µM (inactive) in the assay on PC-3; > 100 µM (inactive) in the assay with SK-MEL-5; > 70.6 µM (inactive) in the assay with HOP-62; > 100 µM (inactive) in the assay on OVCAR-3; > 100 µM (inactive) in the assay on MDA-N; 67 µM (inactive) with SNB-19. Also, the GI50 in the assay on UACC-257 and with BT-549 was > 100 µM (inactive) throughout.

`Cc1ccc(C(=O)O)c(/C=C2\Cc3ccc(C)cc3C2=O)c1`: the GI50 in the assay with NCI-H226 was 28.2 µM (inactive); in the assay on LOX IMVI, 33.3 µM (inactive); in the assay with OVCAR-4, 50.5 µM (inactive); with A498, 65.9 µM (inactive); in the assay with HCT-15, 56.4 µM; in the assay on A549, 91.2 µM (inactive). Besides, the GI50 in the assay with Malme-3M was 95.9 µM (inactive); with KM12, 61.4 µM (inactive); in the assay on ACHN, 55.2 µM (inactive); in the assay with 786-0, 62.2 µM (inactive); in the assay with TK-10, > 100 µM (inactive); in the assay on SNB-75, 34 µM (inactive). For the same compound, the GI50 is 48.8 µM (inactive) in the assay on PC-3; 25.1 µM (inactive) with SK-MEL-5; 44.2 µM (inactive) in the assay on HOP-62; 31.8 µM (inactive) in the assay with OVCAR-3; 37.8 µM (inactive) in the assay on MDA-N; 45.1 µM (inactive) in the assay with SNB-19. The GI50 is 78.5 µM (inactive) in the assay with UACC-257 and 12.9 µM (inactive) in the assay on BT-549.

As to `O=C(NNC(=O)c1ccccc1S)c1ccccc1S` [BIS(THIOSALICYL)HYDRAZIDE], the GI50 with NCI-H226 was 15.5 µM (inactive); in the assay on LOX IMVI, 9.84 µM (inactive); with OVCAR-4, 15.6 µM (inactive); with A498, > 100 µM (inactive); with HCT-15, 6.03 µM; in the assay on A549, 14.3 µM (inactive). The GI50 in the assay with Malme-3M was 23.7 µM (inactive); in the assay with KM12, 24.5 µM (inactive); in the assay with ACHN it was 10.8 µM (inactive); in the assay on 786-0, 9.42 µM (inactive); in the assay with TK-10, > 25 µM (inactive); in the assay with SNB-75, 18 µM (inactive). For the same compound, the GI50 with PC-3 is 32.1 µM (inactive); in the assay with SK-MEL-5 it was 23 µM (inactive); with HOP-62 it was 15.9 µM (inactive); with OVCAR-3, 9.14 µM (inactive); with MDA-N, 18.2 µM (inactive); in the assay on SNB-19, 23.4 µM (inactive). Moreover, the GI50 in the assay on UACC-257 is 13.8 µM (inactive); in the assay with BT-549 it was 9.38 µM (inactive).

Regarding `CC(=O)NC1C(OCc2ccccc2)OC(CO)C(O)C1OC(C)C(=O)NC(C(=O)NC(CCC(=O)NCCCCNc1c2ccccc2nc2cccc([N+](=O)[O-])c12)C(N)=O)C(C)C` (stereo not given), the GI50 in the assay on NCI-H226 is 3.27 µM (inactive); in the assay on LOX IMVI, 1.67 µM (inactive); in the assay on OVCAR-4 it was 1.24 µM (inactive); in the assay with A498 it was 1.84 µM (inactive); in the assay on HCT-15, 3.21 µM; with A549, 1.29 µM (inactive). The GI50 is 1.82 µM (inactive) with Malme-3M; 2.36 µM (inactive) in the assay with KM12; 1.97 µM (inactive) in the assay with ACHN; 1.81 µM (inactive) with 786-0; 3.1 µM (inactive) in the assay with TK-10; 2.7 µM (inactive) with SNB-75. For the same compound, the GI50 in the assay on PC-3 is 2.67 µM (inactive); in the assay on SK-MEL-5, 2.22 µM (inactive); in the assay on HOP-62, 3.15 µM (inactive); with OVCAR-3 it was 2.13 µM (inactive); in the assay on MDA-N it was 1.64 µM (inactive); in the assay with SNB-19, 4.84 µM (inactive). Further, the GI50 is 3.14 µM (inactive) with UACC-257 and 5.97 µM (inactive) with BT-549.

On to `COC(=O)CC(c1cn(S(=O)(=O)c2ccc(C)cc2)c2ccccc12)C1C[C@@H](C(=O)OC)N(C(=O)OC(C)(C)C)C1=O` (stereo not given in full), for which the GI50 was > 100 µM (inactive) in the assay on NCI-H226; 20.8 µM (inactive) with LOX IMVI; 55.3 µM (inactive) in the assay with OVCAR-4; 71.4 µM (inactive) with A498; 26.5 µM with HCT-15; 27 µM (inactive) in the assay on A549. Also, the GI50 in the assay on Malme-3M was 83.4 µM (inactive); in the assay with KM12, 71.9 µM (inactive); in the assay on ACHN, 12.5 µM (inactive); with 786-0 it was 63.8 µM (inactive); in the assay on TK-10, > 100 µM (inactive); in the assay on SNB-75, 64.1 µM (inactive). Moreover, the GI50 in the assay with PC-3 was 47.6 µM (inactive); with SK-MEL-5, > 100 µM (inactive); with HOP-62, > 100 µM (inactive); with OVCAR-3, 31 µM (inactive); in the assay with MDA-N, 55.8 µM (inactive); in the assay with SNB-19 it was > 100 µM (inactive). For the same compound, the GI50 in the assay with UACC-257 and with BT-549 was > 100 µM (inactive) each time.

On to `O=C1N/C(=N/N=C/C(O)C(O)C(O)C(O)CO)N/C1=C\c1c[nH]c2ccccc12` (stereo not given), for which the GI50 with NCI-H226 was > 100 µM (inactive); with LOX IMVI, > 100 µM (inactive); in the assay on OVCAR-4, > 100 µM (inactive); in the assay with A498, 38.3 µM (inactive); in the assay with HCT-15, > 100 µM; with A549 it was > 100 µM (inactive). Also, the GI50 was > 100 µM (inactive) in the assay with Malme-3M; 52.4 µM (inactive) in the assay on KM12; > 100 µM (inactive) in the assay on ACHN; > 100 µM (inactive) in the assay on 786-0; > 100 µM (inactive) in the assay on TK-10; > 100 µM (inactive) in the assay on SNB-75. Also, the GI50 with PC-3 was 20.3 µM (inactive); with SK-MEL-5, > 100 µM (inactive); with HOP-62, > 100 µM (inactive); with OVCAR-3, 62.8 µM (inactive); in the assay on MDA-N, > 100 µM (inactive); with SNB-19, 38.4 µM (inactive). The GI50 with UACC-257 and in the assay with BT-549 was > 100 µM (inactive) each time.

As for `CCOC(=O)C(Cc1ccc(OC(=O)c2ccc(OC)cc2)cc1)NC(=O)C(F)(F)F` (stereo not given), the GI50 was > 100 µM (inactive) with NCI-H226; > 100 µM (inactive) in the assay on LOX IMVI; 87.7 µM (inactive) in the assay on OVCAR-4; > 100 µM (inactive) in the assay with A498; > 100 µM in the assay with HCT-15; > 100 µM (inactive) with A549. For the same compound, the GI50 in the assay with Malme-3M was > 100 µM (inactive); in the assay on KM12, > 100 µM (inactive); in the assay with ACHN, 53.6 µM (inactive); in the assay with 786-0, > 100 µM (inactive); in the assay with TK-10 it was > 100 µM (inactive); in the assay on SNB-75, 20.7 µM (inactive). Besides, the GI50 in the assay with PC-3 was > 100 µM (inactive); with SK-MEL-5 it was > 100 µM (inactive); in the assay with HOP-62, 35.5 µM (inactive); in the assay on OVCAR-3 it was > 100 µM (inactive); in the assay with MDA-N, > 100 µM (inactive); in the assay on SNB-19 it was > 100 µM (inactive). Besides, the GI50 in the assay on UACC-257 and in the assay with BT-549 was > 100 µM (inactive) in each case.

In the case of `C=C1[C@H](OCC(C)C)[C@@H](O)[C@@H](OC(=O)c2cccnc2)C(C)(C)/C=C/[C@H](C)[C@H](OC(C)=O)[C@@]2(O)C[C@@](C)(OC(C)=O)[C@H](OC(=O)c3ccccc3)[C@@H]2[C@H]1OC(C)=O`, the GI50 in the assay with NCI-H226 is 1.39 µM (inactive); in the assay with LOX IMVI it was 1.17 µM (inactive); in the assay with OVCAR-4 it was 1.9 µM (inactive); in the assay on A498, 0.482 µM (active); in the assay on HCT-15, 1.16 µM; in the assay on A549, 0.0459 µM (active). The GI50 in the assay on Malme-3M is 0.187 µM (active); in the assay with KM12, 1.34 µM (inactive); in the assay on ACHN, 0.161 µM (active); in the assay on 786-0 it was 1.67 µM (inactive); with TK-10 it was 1.07 µM (active); with SNB-75, 0.134 µM (active). Further, the GI50 is 1.66 µM (inactive) in the assay with PC-3; 0.332 µM (active) with SK-MEL-5; 0.0681 µM (active) in the assay on HOP-62; 1.12 µM (active) with OVCAR-3; 0.451 µM (active) with MDA-N; 3.1 µM (inactive) with SNB-19. Also, the GI50 in the assay with UACC-257 is 2.9 µM (inactive); in the assay with BT-549, 1.66 µM (inactive).

`Cn1c(=O)c2nc(CCCCC(=O)O)[nH]c2n(C)c1=O`: the GI50 was > 100 µM (inactive) in the assay with NCI-H226; > 100 µM (inactive) in the assay on LOX IMVI; > 100 µM (inactive) in the assay with OVCAR-4; > 100 µM (inactive) in the assay on A498; > 100 µM in the assay on HCT-15; > 100 µM (inactive) with A549. Besides, the GI50 with Malme-3M, with KM12, in the assay on ACHN, in the assay on 786-0, in the assay on TK-10 and in the assay on SNB-75 was > 100 µM (inactive) in each case. The GI50 in the assay with PC-3, with SK-MEL-5, in the assay on HOP-62, in the assay with OVCAR-3, in the assay on MDA-N and in the assay with SNB-19 was > 100 µM (inactive) throughout. Also, the GI50 in the assay on UACC-257 and in the assay on BT-549 was > 100 µM (inactive) throughout.

On to `CC(C)=CCCC(C)CCOS(=O)C(F)(F)F` (stereo not given), for which the GI50 was 20 µM (inactive) in the assay with NCI-H226; 16.3 µM (inactive) in the assay with LOX IMVI; 6.59 µM (inactive) in the assay with OVCAR-4; 20.8 µM (inactive) with A498; 2.49 µM in the assay with HCT-15; 22.9 µM (inactive) with A549. The GI50 in the assay on Malme-3M is 3.15 µM (inactive); with KM12, 88.7 µM (inactive); with ACHN, 11.4 µM (inactive); in the assay with 786-0 it was > 100 µM (inactive); in the assay with TK-10, > 100 µM (inactive); with SNB-75, 20.5 µM (inactive). Moreover, the GI50 in the assay with PC-3 was 18 µM (inactive); with SK-MEL-5 it was 15.8 µM (inactive); in the assay with HOP-62, 70.1 µM (inactive); in the assay with OVCAR-3 it was 11.2 µM (inactive); with MDA-N it was 1.6 µM (inactive); in the assay with SNB-19, 22.1 µM (inactive). Besides, the GI50 was 19.5 µM (inactive) in the assay with UACC-257 and 5.24 µM (inactive) with BT-549.
